Reference: the NIST ThermoML archive (doi:10.1021/je060415l)
Numbers after ± are expanded uncertainties.

Conditions: Liquid, expansion method

CO [methanol]
Conditions | isothermal compressibility
208.17 K, 390 kPa | 7.15e-07 ± 4.1e-08 1/kPa
208.17 K, 2110 kPa | 6.78e-07 ± 4e-08 1/kPa
208.17 K, 5020 kPa | 6.63e-07 ± 4e-08 1/kPa
208.17 K, 7970 kPa | 6.47e-07 ± 3.9e-08 1/kPa
208.17 K, 10910 kPa | 6.37e-07 ± 3.9e-08 1/kPa
208.17 K, 13880 kPa | 6.24e-07 ± 3.9e-08 1/kPa
208.17 K, 16980 kPa | 6.12e-07 ± 3.9e-08 1/kPa
208.17 K, 20090 kPa | 6.02e-07 ± 3.8e-08 1/kPa
208.17 K, 23230 kPa | 5.9e-07 ± 3.8e-08 1/kPa
208.17 K, 30160 kPa | 5.68e-07 ± 3.8e-08 1/kPa
208.17 K, 33540 kPa | 5.57e-07 ± 3.8e-08 1/kPa
208.17 K, 37190 kPa | 5.46e-07 ± 3.7e-08 1/kPa
208.17 K, 41120 kPa | 5.34e-07 ± 3.7e-08 1/kPa
208.17 K, 45130 kPa | 5.26e-07 ± 3.7e-08 1/kPa
208.17 K, 49210 kPa | 5.15e-07 ± 3.7e-08 1/kPa
208.17 K, 53370 kPa | 5.04e-07 ± 3.7e-08 1/kPa
208.17 K, 57610 kPa | 4.95e-07 ± 3.6e-08 1/kPa
208.17 K, 61920 kPa | 4.85e-07 ± 3.6e-08 1/kPa
208.17 K, 66300 kPa | 4.78e-07 ± 3.6e-08 1/kPa
208.17 K, 70740 kPa | 4.7e-07 ± 3.6e-08 1/kPa
208.17 K, 75250 kPa | 4.6e-07 ± 3.6e-08 1/kPa
208.17 K, 79850 kPa | 4.53e-07 ± 3.6e-08 1/kPa
208.17 K, 84300 kPa | 4.48e-07 ± 3.6e-08 1/kPa
208.17 K, 88600 kPa | 4.41e-07 ± 3.6e-08 1/kPa
208.17 K, 92960 kPa | 4.35e-07 ± 3.6e-08 1/kPa
208.17 K, 97910 kPa | 4.18e-07 ± 3.5e-08 1/kPa
223.17 K, 1060 kPa | 7.59e-07 ± 4.2e-08 1/kPa
223.17 K, 3160 kPa | 7.44e-07 ± 4.1e-08 1/kPa
223.17 K, 5540 kPa | 7.28e-07 ± 4.1e-08 1/kPa
223.17 K, 8010 kPa | 7.14e-07 ± 4.1e-08 1/kPa
223.17 K, 10640 kPa | 7.01e-07 ± 4e-08 1/kPa
223.17 K, 13500 kPa | 6.84e-07 ± 4e-08 1/kPa
223.17 K, 16660 kPa | 6.62e-07 ± 4e-08 1/kPa
223.17 K, 19820 kPa | 6.59e-07 ± 4e-08 1/kPa
223.17 K, 22850 kPa | 6.45e-07 ± 3.9e-08 1/kPa
223.17 K, 25930 kPa | 6.33e-07 ± 3.9e-08 1/kPa
223.17 K, 29040 kPa | 6.2e-07 ± 3.9e-08 1/kPa
223.17 K, 32210 kPa | 6.08e-07 ± 3.9e-08 1/kPa
223.17 K, 35450 kPa | 5.98e-07 ± 3.8e-08 1/kPa
223.17 K, 38770 kPa | 5.87e-07 ± 3.8e-08 1/kPa
223.17 K, 42230 kPa | 5.74e-07 ± 3.8e-08 1/kPa
223.17 K, 45780 kPa | 5.66e-07 ± 3.8e-08 1/kPa
223.17 K, 49400 kPa | 5.55e-07 ± 3.8e-08 1/kPa
223.17 K, 53080 kPa | 5.45e-07 ± 3.7e-08 1/kPa
223.17 K, 56960 kPa | 5.3e-07 ± 3.7e-08 1/kPa
223.17 K, 61040 kPa | 5.23e-07 ± 3.7e-08 1/kPa
223.17 K, 65060 kPa | 5.15e-07 ± 3.7e-08 1/kPa
223.17 K, 69050 kPa | 5.06e-07 ± 3.7e-08 1/kPa
223.17 K, 73000 kPa | 4.98e-07 ± 3.7e-08 1/kPa
223.17 K, 76980 kPa | 4.9e-07 ± 3.6e-08 1/kPa
223.17 K, 81110 kPa | 4.82e-07 ± 3.6e-08 1/kPa
223.17 K, 85330 kPa | 4.72e-07 ± 3.6e-08 1/kPa
223.17 K, 89630 kPa | 4.66e-07 ± 3.6e-08 1/kPa
223.17 K, 94200 kPa | 4.54e-07 ± 3.6e-08 1/kPa
223.17 K, 98850 kPa | 4.51e-07 ± 3.6e-08 1/kPa
248.19 K, 1680 kPa | 8.6e-07 ± 4.4e-08 1/kPa
248.19 K, 4590 kPa | 8.53e-07 ± 4.4e-08 1/kPa
248.19 K, 7250 kPa | 8.36e-07 ± 4.4e-08 1/kPa
248.19 K, 9880 kPa | 8.18e-07 ± 4.3e-08 1/kPa
248.19 K, 12580 kPa | 8.01e-07 ± 4.3e-08 1/kPa
248.19 K, 15470 kPa | 7.74e-07 ± 4.2e-08 1/kPa
248.19 K, 18450 kPa | 7.62e-07 ± 4.2e-08 1/kPa
248.19 K, 21360 kPa | 7.48e-07 ± 4.2e-08 1/kPa
248.19 K, 24330 kPa | 7.3e-07 ± 4.1e-08 1/kPa
248.19 K, 27310 kPa | 7.19e-07 ± 4.1e-08 1/kPa
248.19 K, 30180 kPa | 7.07e-07 ± 4.1e-08 1/kPa
248.19 K, 33000 kPa | 6.92e-07 ± 4e-08 1/kPa
248.19 K, 35670 kPa | 6.84e-07 ± 4e-08 1/kPa
248.19 K, 38600 kPa | 6.64e-07 ± 4e-08 1/kPa
248.19 K, 41780 kPa | 6.56e-07 ± 4e-08 1/kPa
248.19 K, 44760 kPa | 6.45e-07 ± 3.9e-08 1/kPa
248.19 K, 47880 kPa | 6.33e-07 ± 3.9e-08 1/kPa
248.19 K, 51230 kPa | 6.19e-07 ± 3.9e-08 1/kPa
248.19 K, 54640 kPa | 6.09e-07 ± 3.9e-08 1/kPa
248.19 K, 57930 kPa | 5.99e-07 ± 3.8e-08 1/kPa
248.19 K, 61270 kPa | 5.85e-07 ± 3.8e-08 1/kPa
248.19 K, 64800 kPa | 5.75e-07 ± 3.8e-08 1/kPa
248.19 K, 68310 kPa | 5.66e-07 ± 3.8e-08 1/kPa
248.19 K, 71740 kPa | 5.57e-07 ± 3.8e-08 1/kPa
248.19 K, 75070 kPa | 5.49e-07 ± 3.7e-08 1/kPa
248.19 K, 78410 kPa | 5.41e-07 ± 3.7e-08 1/kPa
248.19 K, 81890 kPa | 5.31e-07 ± 3.7e-08 1/kPa
248.19 K, 85380 kPa | 5.25e-07 ± 3.7e-08 1/kPa
248.19 K, 88990 kPa | 5.18e-07 ± 3.7e-08 1/kPa
248.19 K, 92540 kPa | 5.18e-07 ± 3.7e-08 1/kPa
248.19 K, 96400 kPa | 5e-07 ± 3.7e-08 1/kPa
248.19 K, 100840 kPa | 4.9e-07 ± 3.6e-08 1/kPa
263.17 K, 1420 kPa | 9.64e-07 ± 4.7e-08 1/kPa
263.17 K, 3920 kPa | 9.42e-07 ± 4.6e-08 1/kPa
263.17 K, 6360 kPa | 9.2e-07 ± 4.6e-08 1/kPa
263.17 K, 8840 kPa | 9.02e-07 ± 4.5e-08 1/kPa
263.17 K, 11360 kPa | 8.82e-07 ± 4.5e-08 1/kPa
263.17 K, 13920 kPa | 8.62e-07 ± 4.4e-08 1/kPa
263.17 K, 16580 kPa | 8.42e-07 ± 4.4e-08 1/kPa
